Experiments:
HCT116 cell line = assay: Cell proliferation assay using crystal violet, HCT116; assay type: cell-based; conditions: Homo sapiens, HCT-116, n = 3, 24 h incubation
Description: (§1) For quantification, cells are treated with crystal violet, a dye that stains proteins. After washing away of excess dye, the remaining crystal violet is dissolved in a sodium citrate solution. The solution is analyzed photometrically at 590 nm. The optical density of this solution depends on the concentration of crystal violet and therefore on the amount of cells. […] To reduce effects of evaporation, only the inner 60 wells of 96-well plates (coated with 0.1% gelatine solution for studies with HUVEC) were used for experiments.
Cells were seeded at a density of 5 000 cells per well in 100 μl growth medium (HUVEC) or 20 000 (HCT116), 15 000 (SW480 and 518A2) or 10 000 (HT29) cells per well in 200 μl growth medium in 55 wells per plate. 5 wells were filled with medium only. Additionally, a 96-well plate with cells in 12 wells and medium in 6 wells was prepared as T0-plate. The next day, additional 98 μl of growth medium were added in every well (only HUVEC).
Cells were treated with 2 μl of the working solution 24 h after seeding. Final compound concentrations in the well were 10 μM for the first round of screening. The final DMSO concentration was 0.5%. […] After finishing the addition of compounds, the T0-plate was stained with crystal violet for giving the cell density at time point zero. Before staining, the growth medium was poured away. Wells were filled with 50 μl crystal violet solution for 10 min. Then the staining solution was washed away with water. Since crystal violet is environmentally hazardous the waste was collected and disposed in an appropriate manner. After air drying of the plates the crystal violet on the cells was dissolved in 100 μl of sodium citrate solution, and the absorption was measured with a plate reader at 590 nm.
Mean values were corrected with the absorption of stained medium and the corrected absorption of T0 cells. Cell growth was calculated relative to DMSO control for data comparison.

[1] = test system: colon carcinoma cell line HCT116p53 wild type; assay: Crystal violet assay, HCT116p53wt; assay type: cell-based; conditions: n = 3
Description: as §1
(§2) Cells were treated with 2 μl of the working solution 24 h after seeding. Final compound concentrations in the well were 10 μM for the first round of screening. The final DMSO concentration was 0.5%. […] After finishing the addition of compounds, the T0-plate was stained with crystal violet for giving the cell density at time point zero. […] After air drying of the plates the crystal violet on the cells was dissolved in 100 μl of sodium citrate solution, and the absorption was measured with a plate reader at 590 nm.
(§3) Mean values were corrected with the absorption of stained medium and the corrected absorption of T0 cells. Cell growth was calculated relative to DMSO control for data comparison. IC50 values (50% inhibition of cell growth) were determined with GraphPad Prism® (Version 4.03) using nonlinear regression (sigmoidal dose-response with variable slope). […]

[2] = test system: colon carcinoma cell line HCT116p53ko; assay: Crystal violet assay, HCT116p53ko; assay type: cell-based; conditions: n = 3
Description: as §1, §2, §3

[3] = test system: melanoma cell line SK-MEL 5; assay: Crystal violet assay, SK-MEL 5; assay type: cell-based; conditions: Homo sapiens, n = 3
Description: as §1, §2, §3

SW480 cells = assay: Cell cycle analysis by flow cytometry; assay type: cell-based; conditions: 0.03, 0.1 or 0.3 μM compared to DMSO control; FIG. 5
Description: FIG. 5: Cell cycle analysis using SW480 cells treated with 0 μM (control using DMSO), 0.03 μM, 0.1 μM or 0.3 μM of compound 22.
To quantify the cellular DNA content, DNA is visualized by staining with propidium iodide (PI), a fluorescent dye which binds to double stranded DNA. To allow PI to enter cells they are permeabilized with Triton-X. The fluorescence intensity per cell, which correlates with its DNA content, is measured by flow cytometry. The G0/G1 peak represents cells in the usual diploid state. Apoptotic cells are characterized through a peak in the FACS histogram below the G0/G1 peak (sub G1) (Nicoletti I et al. J. Immunol. Methods 1991, 139 (2), 271-279):
Since cells in different phases of the cell cycle have a different DNA content this method can also be used for measuring the amount of cells in different stages of the cell cycle. Cells were seeded in 12-well plates at a density 10 fold more than used in 96-well plates in 2 ml growth media. Cells were incubated for one day, until they reached 50-70% confluence. Then they were stimulated with different concentrations of the test compounds, according to the data available from proliferation assays. […]
Cells were measured by flow cytometry 50-150 events/second with a total of 10 000 events using channel FL2-A. Data were analyzed with CellQuest Pro™. Mean values from different repeats were analyzed using GraphPad Prism® 4.03.

SMILES | IC50 (HCT116 cell line) [nM] | IC50 [1] [nM] | IC50 [2] [nM] | IC50 [3] [nM] | “DNA>4N” portion (inhibition of cell division) (SW480 cells) | “Sub G1” portion (induction of apoptosis) (SW480 cells) | melting point [°C]
COc1ccccc1/C=C/C=C/C(=O)c1cc(OC)c(OC)c(OC)c1 [Compound 1, 5-(2-Methoxyphenyl)-1-(3′,4′,5′-trimethoxyphenyl)-2,4-pentadiene-1-one] | 230 | 280 | 100 | 150 |  |  | 
CCOc1ccccc1C(=O)/C=C/c1ccc2ccccc2c1 [Compound 22, 3-(2-Naphthyl)-1-(2′-ethoxyphenyl)-2-propene-1-one] |  |  |  |  | increase | increase | 96 to 97
